Our source for the mass density and excess molar volume values is the NIST ThermoML archive (doi:10.1021/acs.jced.5b00331).

± gives the expanded uncertainty stated by the source.

Series [1] is described as follows: xn = mol fraction of the nth substance listed. Particulars: 101 kPa, Liquid; for mass density: Vibrating tube method; for excess molar volume: Direct dilatometry.
For series [2] the following is noted: 313.15 K; 101.33 kPa; Liquid; Vibrating tube method.

A word on the mass density: it is the mass of a sample divided by its volume. For `C1CCCCCC1` [cycloheptane] + C1CCCC1, the mass density in series [1] (313.15 K, x2 = 0.4999) came out at 762.9 ± 0.2 kg/m3.
As for `CCCCCCCCCCCCCCCCCCCCCCCC` [tetracosane] + CCCCCCCC, the mass density in series [1] (313.15 K, x2 = 0.5) came to 758.8 ± 0.3 kg/m3; in series [1] (315.65 K, x2 = 0.5) it was 757.1 ± 0.3 kg/m3.
Take `C1CCCCC1` [cyclohexane]: in series [2], the mass density is 759.8 ± 0.2 kg/m3.
For `CCCCCCCCCCCCCCCCCCCCCC` [docosane] + CCCCCCCCCC, the mass density in series [1] (313.15 K, x2 = 0.5001) is listed as 758.9 ± 0.2 kg/m3.
Still for that read-out and setting: for `CCCCCCCCCCCCCCCCCC` [octadecane] + CCCCCCCCCCCCCC the value was 758.4 ± 0.2 kg/m3.
In the case of `CCCCCCCCCCCCCCCC` [hexadecane], the mass density in series [2] is listed as 762.9 ± 0.3 kg/m3.
`CCCCCCCCCCCCCCCC` [hexadecane] + C1CCCCC1: the excess molar volume in series [1] (313.15 K, x2 = 0.0083) is 1.32e-08 ± 2.8e-09 m3/mol; in series [1] (313.15 K, x2 = 0.03441) it was 5.31e-08 ± 2.9e-09 m3/mol; in series [1] (313.15 K, x2 = 0.0839), 1.341e-07 ± 3.1e-09 m3/mol; in series [1] (313.15 K, x2 = 0.1372) it was 2.074e-07 ± 3.8e-09 m3/mol; in series [1] (313.15 K, x2 = 0.2221), 3.185e-07 ± 5.1e-09 m3/mol; in series [1] (313.15 K, x2 = 0.3029), 4.088e-07 ± 6.6e-09 m3/mol. Further, the excess molar volume was determined as 4.671e-07 ± 7.7e-09 m3/mol in series [1] (313.15 K, x2 = 0.3641); 5.136e-07 ± 8.8e-09 m3/mol in series [1] (313.15 K, x2 = 0.4199); 5.593e-07 ± 1e-08 m3/mol in series [1] (313.15 K, x2 = 0.4911); 5.779e-07 ± 9.7e-09 m3/mol in series [1] (313.15 K, x2 = 0.5316); 5.878e-07 ± 9.2e-09 m3/mol in series [1] (313.15 K, x2 = 0.5632); 5.938e-07 ± 8.6e-09 m3/mol in series [1] (313.15 K, x2 = 0.59). The excess molar volume in series [1] (313.15 K, x2 = 0.6216) turned out to be 5.968e-07 ± 8e-09 m3/mol; in series [1] (313.15 K, x2 = 0.6527), 5.956e-07 ± 7.4e-09 m3/mol; in series [1] (313.15 K, x2 = 0.6834), 5.888e-07 ± 6.9e-09 m3/mol; in series [1] (313.15 K, x2 = 0.7073), 5.731e-07 ± 6.3e-09 m3/mol; in series [1] (313.15 K, x2 = 0.7163) it was 5.728e-07 ± 6.1e-09 m3/mol; in series [1] (313.15 K, x2 = 0.7223), 5.731e-07 ± 6.1e-09 m3/mol. The excess molar volume in series [1] (313.15 K, x2 = 0.7489) is given as 5.558e-07 ± 6.1e-09 m3/mol; in series [1] (313.15 K, x2 = 0.7508), 5.513e-07 ± 6.1e-09 m3/mol; in series [1] (313.15 K, x2 = 0.7749), 5.318e-07 ± 5.3e-09 m3/mol; in series [1] (313.15 K, x2 = 0.8022), 5.039e-07 ± 4.8e-09 m3/mol; in series [1] (313.15 K, x2 = 0.8303) it was 4.675e-07 ± 4.5e-09 m3/mol; in series [1] (313.15 K, x2 = 0.8736) it was 3.939e-07 ± 4e-09 m3/mol. Further, the excess molar volume in series [1] (313.15 K, x2 = 0.8928) came to 3.535e-07 ± 3.9e-09 m3/mol; in series [1] (313.15 K, x2 = 0.9106), 3.105e-07 ± 3.9e-09 m3/mol; in series [1] (313.15 K, x2 = 0.9242), 2.747e-07 ± 4e-09 m3/mol; in series [1] (313.15 K, x2 = 0.9453), 2.13e-07 ± 4e-09 m3/mol; in series [1] (313.15 K, x2 = 0.9634) it was 1.518e-07 ± 4.4e-09 m3/mol; in series [1] (313.15 K, x2 = 0.9801) it was 8.6e-08 ± 4.7e-09 m3/mol. The excess molar volume came out at 5.32e-08 ± 4.9e-09 m3/mol in series [1] (313.15 K, x2 = 0.988) and 2.3e-08 ± 5e-09 m3/mol in series [1] (313.15 K, x2 = 0.9948).
